According to patent US9932320B2 (BRISTOL-MYERS SQUIBB COMPANY, priority 2014, dated 2018):

The compounds below were run against T1, AAK1 (GST-Xa-hAAK1) (Homo sapiens, UniProt Q2M2I8) (assay: AAK1 Kinase Assay (Caliper LabChip, fluoresceinated peptide substrate)). Settings: AAK1 functional potency; class symbols; read-out: IC50 (nM), functional potency as IC50 ranges.
T1 construct: made in house
Format: biochemical
Experimental: The assays were performed in U-bottom 384-well plates. The final assay volume was 30 μl prepared from 15 μl additions of enzyme and substrates (fluoresceinated peptide (5-FAM)-Aha-KEEQSQITSQVTGQIGWR-NH2 and ATP) and test compounds in assay buffer (10 mM Tris-HCL pH 7.4, 10 mM MgCl2, 0.01% Tween-20 and 1.0 mM DTT). The reactions were initiated by the combination of bacterially expressed, GST-Xa-hAAK1 with substrates and test compounds. The reactions were incubated at room temperature for 3 hours and terminated by adding 60 μl of 35 mM EDTA buffer to each sample. The reactions were analyzed on the Caliper LabChip 3000 (Caliper, Hopkinton, Mass.) by electrophoretic separation of the fluorescent substrate and phosphorylated product. Inhibition data were calculated by comparison to EDTA quenched control reactions for 100% inhibition and vehicle-only reactions for 0% inhibition. The final concentration of reagents in the assays are ATP, 22 μM; (5-FAM)-Aha-KEEQSQITSQVTGQIGWR-NH2, 1.5 μM; GST-Xa-hAAK1, 3.5 nM; and DMSO, 1.6%. Dose response curves were generated to determine the concentration required inhibiting 50% of kinase activity (IC50). Compounds were dissolved at 10 mM in dimethylsulfoxide (DMSO) and evaluated at eleven concentrations. IC50 values were derived by non-linear regression analysis.

T1 sequence (Q2M2I8 whole entry): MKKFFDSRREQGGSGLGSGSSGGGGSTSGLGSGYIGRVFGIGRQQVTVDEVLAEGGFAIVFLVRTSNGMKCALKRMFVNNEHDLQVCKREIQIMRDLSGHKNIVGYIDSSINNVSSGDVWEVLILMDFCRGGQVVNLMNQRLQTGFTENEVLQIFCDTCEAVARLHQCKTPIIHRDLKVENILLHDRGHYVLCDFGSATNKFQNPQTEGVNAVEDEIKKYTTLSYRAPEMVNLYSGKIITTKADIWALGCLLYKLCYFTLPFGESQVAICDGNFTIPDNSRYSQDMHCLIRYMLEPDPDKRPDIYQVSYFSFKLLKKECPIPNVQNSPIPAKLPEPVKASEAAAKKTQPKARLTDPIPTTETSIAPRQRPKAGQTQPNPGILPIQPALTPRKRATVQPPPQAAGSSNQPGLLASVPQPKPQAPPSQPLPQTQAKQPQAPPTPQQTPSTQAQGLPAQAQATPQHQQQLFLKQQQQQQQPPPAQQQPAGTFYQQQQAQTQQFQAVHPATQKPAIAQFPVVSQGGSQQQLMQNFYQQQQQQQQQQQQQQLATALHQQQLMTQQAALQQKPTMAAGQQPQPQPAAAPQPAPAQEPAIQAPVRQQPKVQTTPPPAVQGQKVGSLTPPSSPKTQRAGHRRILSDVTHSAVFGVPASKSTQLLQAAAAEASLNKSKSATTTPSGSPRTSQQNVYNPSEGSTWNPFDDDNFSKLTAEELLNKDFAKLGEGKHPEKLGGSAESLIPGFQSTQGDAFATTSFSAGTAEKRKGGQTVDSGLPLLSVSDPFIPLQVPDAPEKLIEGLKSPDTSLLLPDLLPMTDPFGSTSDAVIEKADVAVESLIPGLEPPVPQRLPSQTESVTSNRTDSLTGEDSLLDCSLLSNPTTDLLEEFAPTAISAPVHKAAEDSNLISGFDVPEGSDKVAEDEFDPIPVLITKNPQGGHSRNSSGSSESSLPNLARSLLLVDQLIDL

Structure (SMILES) | IC50
CC(=O)Nc1cc(-c2ccc3nc(C(O)CC(C)C)ccc3c2)ccn1 (stereo not drawn) [Example 45, N-(4-(2-(1-hydroxy-3-methylbutyl)quinolin-6-yl)pyridin-2-yl)acetamide] | 11 to 100 nM
CC(=O)Nc1cc(-c2ccc3nc(C(N)CC(C)C)ccc3c2)ccn1 (single isomer, unassigned) [Example 33, N-(4-(2-(1-amino-3-methylbutyl)quinolin-6-yl)pyridin-2-yl)acetamide] | 1 to 10 nM
CC(C)CCc1ccc2cc(-c3ccncc3)ccc2n1 [Example 4, 2-Isopentyl-6-(pyridin-4-yl)quinoline] | 101 to 2500 nM
CC(C)CC(N)c1ccc2cc(-c3ccnc(NC4CC4)c3)ccc2n1 (stereo not drawn) [Example 38, 4-(2-(1-amino-3-methylbutyl)quinolin-6-yl)-N-cyclopropylpyridin-2-amine] | 11 to 100 nM
CC(C)CC(OCC(F)(F)F)c1ccc2cc(-c3ccncc3)ccc2n1 (stereo not drawn) [Example 32, 2-(3-methyl-1-(2,2,2-trifluoroethoxy)butyl)-6-(pyridin-4-yl)quinoline] | 101 to 2500 nM
Cc1nc2ccc(-c3ccncc3)cc2c(O)c1CC(C)C [Example 14, 3-Isobutyl-2-methyl-6-(pyridin-4-yl)quinolin-4-ol] | 101 to 2500 nM
